Columns and labels:
[1] = tested on: Velvet leaf (Abutilion theophrasti=Bayer Code: ABUTH); test: Weed control with glyphosate IPA salt, optionally with adjuvant; format: in vivo; conditions: 270 g/ha glyphosate IPA salt, spray volume 200 l/ha, 20 days after treatment, untreated area = 0%
Method: (§1) Two weeds, Velvet leaf (Abutilion theophrasti=Bayer Code: ABUTH) and Hemp sesbania (Sesbania exaltata=Bayer Code=SEBEX) were treated with a suboptimum rate of 270 g a.e./ha glyphosate IPA salt, optionally in the presence of N,N-Dimethyl levulinic acid amide as an adjuvant (spray volume: 200 l/ha) with three replications over a period of 21 days. Assessments took place for SEBEX after 10 and for ABUTH 20 days after treatment. The efficacy of the biocide/adjuvant composition was determined against a control where the number of weeds in a similar untreated area was set to 0%.

[2] = tested on: Hemp sesbania (Sesbania exaltata=Bayer Code=SEBEX); test: as above; format: in vivo
Method: as §1

Structure (SMILES) | ABUTH Control (weed control) [1] [%-rel.] | SEBEX Control (weed control) ([2]; 270 g/ha glyphosate IPA salt, spray volume 200 l/ha, 10 days after treatment, untreated area = 0%) [%-rel.] | weed control performance of glyphosate on addition of adjuvant ([2]; summary in words, SEBEX and ABUTH)
CC(C)N.O=C(O)CNCP(=O)(O)O [C3, glyphosate IPA salt] | 82 | 50 | 
CC(=O)CCC(=O)N(C)C [Example 6, Levulinic acid dimethylamide] |  |  | improves the weed control performance of glyphosate significantly

Reference: patent US9060512B2, “Biocide compositions (III)” (Cognis IP Management GmbH, priority 2009, dated 2015)
